Laboratory results from patent US9532994B2, “Agents and methods for enhancing bone formation by oxysterols in combination with bone morphogenic proteins” (THE REGENTS OF THE UNIVERSITY OF CALIFORNIA, priority 2003, dated 2017).

Assays:
[1] = tested on: M2-10B4 mouse marrow stromal cell line; test: Alkaline phosphatase (ALP) activity assay in M2 cells; type: cell-based; details: for inhibition of oxysterol-induced alkaline phosphatase activity: with 22R+20S (2.5 μM each), 3 days, SC 10 μM, ACA 25 μM, MC 20 μM (FIGS. 9A, 9E)
Method: (§1) Cells: M2-10B4 mouse marrow stromal cell line obtained from American Type Culture Collection (ATCC, Rockville, Md., U.S.A.) was derived from bone marrow stromal cells of a (C57BL/6J×C3H/HeJ) F1 mouse, and support human and murine myelopoiesis in long-term cultures (as per ATCC) and have the ability to differentiate into osteoblastic and adipocytic cells. Unless specified, these cells were cultured in RPMI 1640 containing 10% heat-inactivated FBS, and supplemented with 1 mM sodium pyruvate, 100 U/ml penicillin, and 100 […] (all from Irvine Scientific).
Alkaline phosphatase activity assay: Colorimetric alkaline phosphatase (ALP) activity assay on whole cell extracts was performed as previously described. […]
Test 2: M2 cells were grown in RPMI medium containing 10% fetal bovine serum (FBS). At confluence, the cells were treated in RPMI containing 5% FBS plus ascorbate at 50 μg/ml and β-glycerophosphate at 3 mM to induce osteoblastic differentiation. Adipogenic differentiation was induced by treating the cells in growth medium plus 10 ˜M troglitazone. A vehicle (C) or oxysterol treatment was applied to cells in a variety of doses (in μM): 20S-Hydroxycholesterol, 25-Hydroxycholesterol, 22R-Hydroxycholesterol; 22S-Hydroxycholesterol; 7-ketocholesterol. Cells were always treated at 90% confluence. After 4 days, alkaline phosphatase activity was determined in whole cell lysates and normalized to protein. Alternatively, MSC cultures were prepared and treated with oxysterols as described above. Cells were treated at 90% confluence with the combination of 22R-Hydroxycholesterol and 20S-Hydroxycholesterol, each at 5 μM, for 4 to 96 hours. The oxysterols where removed and fresh media without oxysterols was added for a total duration of 96 hours. Alkaline phosphatase activity was measured in whole cell extracts and normalized to protein.
M2 cells were treated at 90% confluence with vehicle (C), or oxysterols 20S-Hydroxycholesterol or 22S-Hydroxycholesterol at (0.5 μM) or (1 μM), in the absence or presence of cytochrome P450 inhibitor (SKF525A 10 μM (+)). MSC cultures were also treated at 90% confluence with vehicle (C), or 20S-Hydroxycholesterol (2 μM), in the absence or presence of cytochrome P450 […] (Benzylimidazole 50 μM) or SKF525A (10 μM). After 4 days, alkaline phosphatase activity was measured in whole cell extracts and normalized to protein. […]

[2] = tested on: M2-10B4 mouse marrow stromal cell line; test: Matrix mineralization in M2 cells (von Kossa staining, 45Ca incorporation assay); type: cell-based; details: for inhibition of oxysterol-induced mineralization: with 22R+20S (2.5 μM each), 10 days, 45Ca incorporation (FIGS. 9B, 9F)
Method: as §1
(§2) Von Kossa and oil red O staining—Matrix mineralization in cell monolayers was detected by silver nitrate staining as previously described. Oil red O staining for detection of adipocytes was performed as previously described.
^45Ca incorporation assay—Matrix mineralization in cell monolayers was quantified using the ^45Ca incorporation assay as previously described.
M2 cells at confluence were treated in osteogenic medium with control vehicle or 5 μM oxysterols, alone or in combination as indicated. After 14 days, mineralization was identified by a von Kossa staining, which appears black. FIG. 3C is a depiction of von Kossa staining of M2 cells exposed to various conditions.
M2 cells were treated with control vehicle (C) or a combination of 22R and 20S oxysterols at increasing concentrations. After 14 days, matrix mineralization in cultures was quantified using a ^45Ca incorporation assay. […] FIG. 3D is a bar graph depicting the effect of a combination of oxysterols at various doses on calcium incorporation in M2 cells.
(§3) Next, a combination of 22R and 20S oxysterols (RS, 2.5 μM each) were added in the presence or absence of SC as indicated. After 3 days, ALP activity was measured as described earlier. […] (B) M2 cells were treated as described in (A) and after 10 days matrix mineralization in cultures was quantified by a ^45Ca incorporation assay as described earlier. Results from a representative of three experiments are shown, reported as the mean±SD of quadruplicate determinations, normalized to protein concentration. (C) M2 cells were pretreated with 20 μM SC for 4 hours, followed by the addition of RS in the presence or absence of SC as described above. After 8 days, total RNA was isolated and analyzed for osteocalcin (Osc) and 18S rRNA expression by Northern blotting as previously described. Data from densitometric analysis of the Northern blot is shown in (D) as the average of duplicate samples, normalized to 18S rRNA. (E) M2 cells at confluence were pretreated for 2 hours with control vehicle (C), or PLA2 inhibitors ACA (25 μM) and MCOCF3 (MC, 20 μM), in osteogenic medium. Next, a combination of 22R and 20S oxysterols (RS, 2.5 μM) was added in the presence or absence of the inhibitors as indicated. After 3 days, ALP activity was measured as previously described. Data from a representative of three experiments are shown, reported as the mean±SD of quadruplicate determinations, normalized to protein concentration (p<0.01 for RS vs. RS+ACA and RS+MC). (F) M2 cells were treated as described in (E). After 10 days, matrix mineralization in cultures was quantified using a ^45Ca incorporation assay as previously described. Results from a representative of three experiments are shown, reported as the mean of quadruplicate determinations±SD, normalized to protein concentration (p<0.01 for RS vs. RS+ACA and RS+MC).
(A) M2 cells at confluence were pretreated for four hours with RPMI containing 1% FBS, followed by treatment with control vehicle or 5 μM 20S oxysterol for 1, 4, or 8 hours. Next total cell extracts were prepared and analyzed for levels of native or phosphorylated ERK (pERK) using specific antibodies as previously described.

[3] = tested on: osteocalcin mRNA in M2 cells; test: Northern blotting for osteocalcin mRNA in M2 cells; type: cell-based, mouse; details: TO treatment, after 10 days
Method: The extent of gene induction was determined by densitometry.
After 4 and 8 days, total RNA from duplicate samples was isolated and analyzed for osteocalcin (Osc) and 28S rRNA expression by Northern blotting as described. FIG. 3E is a radiogram of Northern blotting for osteocalcin mRNA in M2 cells exposed to a control or combination of oxysterols for 4 or 8 days. FIG. 3F is a bar graph depicting the relative demsometric units of osteocalcin mRNA in M2 cells exposed to a control or combination of oxysterols for 4 or 8 days. Data from densitometric analysis of the Northern blot is shown in (F) as the average of duplicate samples, normalized to 28S rRNA.
as §3, with “(E).” for “(E). After 10 days, matrix mineralization in cultures was quantified using a ^45Ca incorporation assay as previously described. Results from a representative of three experiments are shown, reported as the mean of quadruplicate determinations±SD, normalized to protein concentration (p<0.01 for RS vs. RS+ACA and RS+MC).”

[4] = tested on: M2 cells; test: Non-toxic doses in M2 cell cultures; type: cell-based, mouse
[5] = tested on: marrow stromal cells; test: Osteogenic activity/effects of oxysterol combinations in marrow stromal cells, readout not specified; type: cell-based, mouse; details: NS-398 at 20 μM, M2 cells
[6] = tested on: M2 cells; test: Adipogenesis of M2 cells, oil Red O staining and adipocyte count; type: cell-based, mouse; details: 10 μM Tro, 10 μM oxysterols, alone or in combination, 10 days (FIG. 7)
Method: as §2
Test 1: M2 cells at 90% confluence were treated with vehicle (C), PPAR-γ activator, troglitazone 10 uM (Tro), alone or in combination with 10 μM oxysterols 20S-, 22R-, or 25S-hydroxycholesterol. After 8 days, adipocytes were identified by oil Red O staining and quantified by counting under a phase contrast microscope. FIG. 6A is a bar graph depicting the effect of oxysterols on reducing adipogenesis of MSC.
Test 2: (A) M2 cells at confluence were treated in RPMI containing 10% FBS with control vehicle or 10 μM troglitazone (Tro) in the absence or presence of 10 μM 20S or 22S oxysterols. After 10 days, adipocytes were visualized by oil Red O staining and quantified by light microscopy, shown in (B). Data from a representative of four experiments are shown, reported as the mean SD of quadruplicate determinations (p<0.001 for Tro vs. Tro+20S and Tro+22S). (C) M2 cells were treated at confluence with 10 μM Tro, alone or in combination with 10 μM 20S oxysterol. After 10 days, total RNA was isolated and analyzed for lipoprotein lipase (LPL), adipocyte P2 gene (aP2) or 18S rRNA expression by Northern blotting as described (Ref). Data from densitometric analysis of the Northern blot is shown in (D) as the average of duplicate samples, normalized to 18S rRNA.

## CCCCC[C@H](O)/C=C/[C@H]1[C@H](O)CC(=O)[C@@H]1C/C=C\CCCC(=O)O [PGE2, prostaglandin E2]
[1]; 1 μM PGE2, data not shown
  reversal of effect of COX-1 inhibitor on oxysterol-induced alkaline phosphatase activity: reversed

## COc1cccc(-c2cc(=O)c3ccccc3o2)c1N [PD98059]
[2]; 20 μM PD with 22R+20S (5 μM each), 10 days (FIG. 10B)
  inhibition of oxysterol-induced mineralization by ERK pathway inhibitor: inhibited

## O=S(=O)(c1ccccc1)N(CC(F)(F)F)c1ccc(C(O)(C(F)(F)F)C(F)(F)F)cc1 [TO, TO-901317]
[1]; 1-4 μM, 4 days (FIG. 8)
  osteoblastic differentiation (alkaline phosphatase activity), LXR ligands: inhibited
[1]; TO at 1-10 μM
  inhibition of alkaline phosphatase activity: dose-dependent inhibition
[1]; ligands used at 10 μM, ±SD, control vehicle C: 18±2, p<0.01 for C vs. all ligands
  alkaline phosphatase activity: 3±0.5 activity units/mg protein
[3]
  induction of osteocalcin gene expression: did not induce
[2]; TO treatment, after 10 days
  induction of mineralization: did not induce

## CCCCC/C=C\C/C=C\C/C=C\C/C=C\CCCC(=O)C(F)(F)F [AACOCF3]
[1]
  inhibition of oxysterol-induced alkaline phosphatase activity: inhibited
[2]
  inhibition of oxysterol-induced mineralization: inhibited

## CCCCC/C=C\C/C=C\C/C=C\C/C=C\CCCC(=O)O [arachidonic acid]
[1]; 25 μM arachidonic acid, data not shown
  reversal of effect of PLA2 inhibitors on oxysterol-induced alkaline phosphatase activity: reversed

## CCCC(C(=O)OCCN(CC)CC)(c1ccccc1)c1ccccc1.Cl [SKF525A]
[1]; SKF525A 10 μM with 20S or 22S at 0.5 or 1 μM, 4 days (FIG. 5A)
  effect on osteogenic effects of the oxysterols (alkaline phosphatase activity): potentiated

## CS(=O)(=O)Nc1ccc([N+](=O)[O-])cc1OC1CCCCC1 [NS-398]
[4]
  highest non-toxic dose: 20 µM
[5]
  inhibition of osteogenic effects of oxysterol combination: negligible inhibitory effects

## CCCCCc1ccc(/C=C/C(=O)Nc2ccccc2C(=O)O)cc1 [ACA]
[1]
  inhibition of oxysterol-induced alkaline phosphatase activity: inhibited
[2]
  inhibition of oxysterol-induced mineralization: inhibited

## CC(C)CCC[C@@H](C)[C@H]1CC[C@H]2[C@@H]3C(=O)C=C4C[C@@H](O)CC[C@]4(C)[C@H]3CC[C@]12C [7K, 7-ketocholesterol, reference compound]
[1]; 10 μM oxysterols, osteogenic medium, 3 days (FIG. 3A)
  induction of alkaline phosphatase activity: did not induce
[6]
  adipogenesis induced by troglitazone: unable to inhibit
